Where two headings read alike, the source gives them in different places.
Columns and labels:
[1] = test system: A549 cells; test: MTT assay (mitochondrial metabolism); assay type: cell-based; conditions: Homo sapiens, read-out: IC50 MTT assay
Description: (§1) MTT assay is the most commonly used method for high-throughput identification of the antiproliferative effects of compounds on cultured cells and is indirectly correlated with mitochondria-dependent apoptosis progression[59]–[61]. The production of reducing equivalents such as NADH in metabolically active cells is an indicator of “cell redox activity”, indirectly reflecting the number of viable cells[60],[61] and the mitochondrial metabolic rate in cells[62],[63].
(§2) A549, Caco-2, HepG2 and TelCOFS02MA cells (1 × 10^4 cells/well), and MDA-MB-231 cells (0.5 × 10^4 cells/well) were seeded in 100 µL of fresh medium into 96-well plates (TC-Plate 96 wells, Sarstedt, Verona, Italy) in quadruplicate for 24 h at 37 °C in a humidified atmosphere of 95% air plus 5% CO2. Then, the medium was removed and replaced with 200 µL of media with different concentrations of CBD (5–80 µM, dilution factor [DF] equal to 2) and CBDV (5.5–88 µM, DF = 2) chosen on the basis of range-finding tests (0.5, 5, and 50 mg/L). We chose 1.56–25 mg/L to be tested and, to make easier the comparison between the two cannabinoids activities, the concentrations were reported in [μM]. In all experiments, negative controls (wells containing cells exposed only to the medium) and solvent controls (wells containing cells exposed to 2.5% methanol) were included. The plates were incubated at 37 °C for three exposure times: 24, 48 and 72 h (different plates were prepared for each specific time point). Then, MTT solution (5 mg/mL) was added to each well, and the plates were re-incubated for 4 h at 37 °C. The culture medium was removed, and 2-propanol was used to dissolve formazan crystals. The absorbance of formazan was measured spectrophotometrically at 590 nm using an automated microplate reader (Synergy H1, Biotek, Winooski, USA). The results are reported as the percentages of cells with inhibited proliferation, as determined by the link between the inhibition of mitochondrial metabolic activity and proliferation. The results were calculated with the following formula:1 IC%=1-OD590sample/OD590negativecontrol·100
(§3) Furthermore, IC50 values (concentrations of the sample used to obtain an inhibition of 50% of cell growth/metabolic activity) were calculated.
(§4) All results from five independent experiments are expressed as the IC50 or EC50 as determined by analysis with Prism 5 software (GraphPad Inc., San Diego, CA, USA) and nonlinear regression (log agonist vs. normalized response-variable slope) with a 95% confidence range. Lowest observed adverse effect concentrations (LOAECs) were calculated by one-way ANOVA and Dunnett’s comparison test. Differences compared to the controls were considered significant as follows: *p < 0.05, **p < 0.001 and ***p < 0.0001.

[2] = test system: Hep G2 cells; test: MTT assay (mitochondrial metabolism); assay type: cell-based; conditions: Homo sapiens, read-out: IC50 MTT assay
Description: as §1, §2, §3, §4

[3] = test system: MDA-MB-231 cells; test: BrdU-ELISA (DNA synthesis inhibition); assay type: cell-based; conditions: Homo sapiens, read-out: IC50 BrdU-ELISA
Description: (§5) BrdU-ELISA was performed according to the protocol described by Lehmann and collaborators, and the results were used to evaluate the inhibition of DNA synthesis. A total of 1 × 10^4 cells/well were seeded in 100 µL of fresh medium into 96-well plates in triplicate at 37 °C in a humidified atmosphere of 95% air plus 5% CO2 for 24 h. Then, the medium was removed and replaced with 200 µL of medium with the same concentrations of CBD and CBDV that had been used in the previous test. In all experiments, blanks (wells with medium and without cells), negative controls (with only medium) and solvent controls (2.5% methanol) were included. The plates were incubated at 37 °C for 72 h. Then, 20 µL of 100 µM BrdU labelling solution was added to each well and incubated for 2 h at 37 °C. After removing the labelling solution, 200 µl of DNA fixing/denaturing solution was added to each well and incubated for 30 min at room temperature. After its discharge, 100 µL of the anti-BrdU-POD antibody solution [0.075 U/mL] was added to each well and incubated for 90 min at room temperature. After several washing steps with 1X PBS (200–300 µL/well), 100 µl of tetramethylbenzidine (TMB) was added to each well and incubated for 20–30 min (sufficient time for the colour change). The incorporation of BrdU into DNA was quantified spectrophotometrically at 370 nm. […] The mean absorbance of the control cells represented 100% cell proliferation, and the mean absorbance of the treated cells was related to the control values to determine cell sensitivity. Inhibition (%) of DNA synthesis/cell viability was determined as follows:2 IC%=1-OD370sample/OD370negativecontrol·100
(§6) IC50 values (representing the median concentration at which DNA synthesis and cell viability were reduced by 50%) were calculated.
as §4

[4] = test system: A549 cells; test: BrdU-ELISA (DNA synthesis inhibition); assay type: cell-based; conditions: Homo sapiens, read-out: IC50 BrdU-ELISA
Description: as §5, §6, §4

[5] = test system: TelCOFS02MA cells; test: BrdU-ELISA (DNA synthesis inhibition); assay type: cell-based, human; conditions: for IC50: Homo sapiens, read-out: IC50 BrdU-ELISA
Description: as §5, §6, §4

[6] = test system: Hep G2 cells; test: BrdU-ELISA (DNA synthesis inhibition); assay type: cell-based, human; conditions: for IC50: Homo sapiens, read-out: IC50 BrdU-ELISA
Description: as §5, §6, §4

[7] = test system: Caco-2 cells; test: BrdU-ELISA (DNA synthesis inhibition); assay type: cell-based, human; conditions: for IC50: Homo sapiens, read-out: IC50 BrdU-ELISA
Description: as §5, §6, §4

[8] = A549, 72 h exposure, 95% confidence interval in brackets
[9] = HepG2, Hep G2, 72 h exposure, 95% confidence interval in brackets

Which results are given for `C=C(C)[C@@H]1CCC(C)=C[C@H]1c1c(O)cc(CCCCC)cc1O` [CBD, Cannabidiol]?
IC50 [1, 8]: 27.7 µM; IC50 [2, 9]: 15.8 µM; IC50 ([3]; MDA-MB-231, 72 h exposure, 95% confidence interval in brackets): 38.4 µM; IC50 [4, 8]: 40.4 µM; IC50 ([5]; TelCOFS02MA, 72 h exposure, 95% confidence interval in brackets): 49.1 µM; IC50 [6, 9]: 39.2 µM; IC50 ([7]; Caco-2, 72 h exposure, 95% confidence interval in brackets): 33.3 µM

Which IC50 ([1]; A549, 72 h) does the source give for `C=C(C)[C@@H]1CCC(C)=C[C@H]1c1c(O)cc(CCC)cc1O` [CBDV, cannabidivarin] here?
Its IC50 is 32.9 µM.

What about the IC50 ([2]; HepG2, 72 h) of the same compound?
Its IC50 is 19.7 µM.

And the IC50 ([3]; MDA-MB-231, 72 h)?
Its IC50 is 46.8 µM.

What about the IC50 ([4]; A549, 72 h) of the same compound?
The IC50 was 48.6 µM.

What about the IC50 ([5]; 72 h) of the same compound?
Its IC50 is 69.1 µM.

And the “LOAEC BrdU-ELISA” value ([5]; TelCOFS02MA, 72 h)?
Its value is 44 µM.

And the “LOAEC BrdU-ELISA” value ([6]; Hep G2, 72 h)?
Its value is 22 µM.

And the IC50 ([6]; HepG2, 72 h)?
Its IC50 is 46.7 µM.

What about the “LOAEC BrdU-ELISA” value ([7]; Caco-2, 72 h) of the same compound?
Its value is 22 µM.

What about the IC50 ([7]; Caco-2, 72 h) of the same compound?
Its IC50 is 40.4 µM.
